Test results from paper PMC3894558, “Chemical signatures and new drug targets for gametocytocidal drug development” (Scientific Reports, 2014).
Entries after “also recorded” stand apart in the source; their conditions may differ.

Key:
[1] = test system: P. falciparum asexual blood stage; set-up: method as in PMID 6285190; settings: cited from earlier work
[2] = test system: P. falciparum liver stage; set-up: method as in PMID 6285190; settings: read-out: IC50, P. falciparum development in the liver stage; cited from earlier work
[3] = test system: P. falciparum 3D7 gametocytes; assay: alamarBlue gametocyte viability assay, strain 3D7; type: cell-based, Plasmodium falciparum; settings: Plasmodium falciparum, 3D7, P. falciparum 3D7 gametocytes; mean of at least 3 independent experiments; read-out: Gametocyte IC50
mTOR = test system: mTOR; set-up: method as in PMID 21322566; settings: cited from earlier work
Plasmodium berghei ANKA = assay: mouse-mosquito transmission model, oocysts per mosquito midgut; type: in vivo, Plasmodium berghei in mice / Anopheles stephensi
[4] = test system: P. falciparum HB3 gametocytes; assay: alamarBlue gametocyte viability assay, strain HB3; type: cell-based, Plasmodium falciparum; settings: Plasmodium falciparum, HB3, strain profiling; 11 concentrations, 1:3 dilution, three times; read-out: HB3-gametocytes IC50
[5] = test system: P. falciparum Dd2 gametocytes; assay: alamarBlue gametocyte viability assay, strain Dd2; type: cell-based, Plasmodium falciparum; settings: Plasmodium falciparum, DD2, strain profiling; 11 concentrations, 1:3 dilution, three times; read-out: Dd2-gametocytes IC50
[6] = test system: P. falciparum asexual blood stage parasites; assay: asexual parasite SYBR green assay; type: cell-based, Plasmodium falciparum; settings: Plasmodium falciparum; SYBR green assay; read-out: IC50 against asexual parasites
[7] = set-up: method as in PMID 21322566; settings: cited from earlier work
[8] = test system: early stages (I and II) of P. falciparum gametocytes; set-up: method as in PMID 6285190; settings: cited from earlier work
HepG2 cells = assay: cells; settings: Homo sapiens

**Q.** What does the source list for `Nc1ccc(-c2ccc3ncc4ccc(=O)n(-c5cccc(C(F)(F)F)c5)c4c3c2)cn1` [Torin 2, 9-(6-Amino-3-pyridinyl)-1-[3-(trifluoromethyl)phenyl]-benzo[h]-1,6-naphthyridin-2(1H)-one]?
**A.** IC50 [1]: 1.4 nM; IC50 [2]: 1.1 nM; IC50 [3]: 8 nM; IC50 (mTOR): […]; exflagellation just prior to mosquito feed, drug- vs vehicle-treated mice (Plasmodium berghei ANKA; 1.5 hrs after drug treatment): no difference; also recorded: equivalent to that of the vehicle-treated controls; oocyst production in fed mosquitoes (Plasmodium berghei ANKA; single dose 2 mg/kg i.v.): significantly reduced; oocyst production in fed mosquitoes (Plasmodium berghei ANKA; single dose 4 mg/kg i.v., 4 mg/kg): almost completely eliminated; also recorded: nearly complete elimination; oocyst production in fed mosquitoes (Plasmodium berghei ANKA; two 4 mg/kg doses i.v. 3 hrs apart, feed 1.5 hrs after final treatment): completely block; also recorded: completely prevented; IC50 [4]: 15 nM; IC50 [5]: 12 nM; IC50 [6]: 2.75 nM; oral bioavailability [7]: 51%; IC50 [8]: 6.6 nM; Emax (HepG2 cells; HepG2, read-out: % Max response): -46%; IC50 (HepG2 cells; HepG2, read-out: IC50 in HepG2 cells): 9350 nM
